# Assay results taken from patent publication EP4458820A1 (Shanghai Institute of Materia Medica, Chinese Academy of …, priority 2021, dated 2023).
# Values joined by “and” are separate entries in the source; they are usually repeats but may differ in a detail not shown here. Equal entries are not always repeated. Where two headings read alike, the source gives them in different places.
# Experiments:
# MHCα = experiment: preliminary safety assessment: MHCα expression in the heart of C57 mice; type: in vivo; details: after administration
# From the text: (§1) Mice or rats were used for single oral administration, and liver and heart were taken at 3 time points after administration to detect the expression of THRβ receptor downstream genes (DIO1, ME, CYP7α1, LDLR) in the target organ-liver, and to detect the expression of THRβ receptor downstream genes (DIO1, MHCα) in the organ involved in toxicity-heart.
# [1] = system: THRβ receptor downstream genes; experiment: acute pharmacodynamic evaluation: THRβ receptor downstream gene expression in liver after single administration; type: in vivo, C57 mice
# From the text: as §1
# thyroid axis = experiment: inhibitory effect on the thyroid axis in C57 mice; type: in vivo; details: administered at high doses
# [2] = pharmacokinetic studies in mice; type: in vivo; set-up: AUC(0-t) / AUClast: concentration or dose not given beside the values; details: for F: bioavailability p.o. versus i.v.
# Experimental: The preliminary pharmacokinetic studies in mice or rats of the target compounds with excellent activity obtained from the above studies were conducted to investigate the pharmacokinetic properties of the compounds under oral, intraperitoneal and intravenous administration in detail, and to calculate the parameters of in vivo exposure (AUC), peak concentration (Cmax), time to peak (Tmax), half-life period (T1/2) and bioavailability (F), which would provide a clue for further structural modification and optimization of the compounds, as well as a basis for in vivo dosage design.
# [3] = system: cardiac DIO1 and MHCα genes; experiment: in vivo safety evaluation: downstream gene expression in the heart of thyroidectomized rats
# Experimental: Normal SD rats, which underwent thyroidectomy and recovered for 1-2 weeks, were grouped by body weight and then given the test compounds or the positive compound MGL-3196. Cardiac tissues were taken after euthanasia 6 h after the administration of the drug to examine the expression of the αMHC gene in the heart after single dose of the drug.
# [4] = tissue distribution studies in mice; type: in vivo; details: for concentration at 3 h / concentration at 8 h / concentration at 24 h: mouse, po
# [5] = system: CDAHFD feed-induced NAFLD model mice; experiment: pharmacodynamic evaluation in CDAHFD feed-induced NAFLD model mice; type: in vivo; details: after 2 and 4 weeks of long-term administration
# [6] = system: high-fat feed -induced golden hamster model; experiment: pharmacodynamic evaluation in high-fat feed-induced golden hamster model; type: in vivo; details: 10 mg/kg, after 21 days of administration
# [7] = mouse, in vivo, iv, individual animal
# [8] = mouse, in vivo, po, individual animal
# [9] = mouse, in vivo, po, individual animal, read-out: Cmax
# [10] = mouse, in vivo, po, individual animal, read-out: Tmax
# [11] = mouse, in vivo, po, mean, read-out: Cmax
# [12] = mouse, in vivo, po, mean, read-out: Tmax
# [13] = Table 4, oral 10 mg/kg, 3 h, individual animal, 10 mg/kg
# [14] = Table 4, oral 10 mg/kg, 8 h, individual animal, 10 mg/kg
# [15] = Table 4, oral 10 mg/kg, 24 h, individual animal, 10 mg/kg
# [16] = Table 6, oral 10 mg/kg, 3.00 h, individual animal, 10 mg/kg
# [17] = Table 6, oral 10 mg/kg, 8.00 h, individual animal, 10 mg/kg
# [18] = Table 6, oral 10 mg/kg, 24.0 h, individual animal, 10 mg/kg
compound,measurement,setting,value
"Cc1cc(-c2ccc(F)cc2)nc2ccc(Oc3c(Cl)cc(-n4nc(C#N)c(=O)[nH]c4=O)cc3Cl)cc12 [Compound 3, 2-(3,5-Dichloro-4-((2-(4-fluorophenyl) -4-methylquinolin-6-yl)oxy)phenyl) -3,5-dioxo-2,3,4,5-tetrahydro-1,2,4-triazine-6-carbonitrile]",upregulation of MHCα in the heart,MHCα,did not result in upregulation
same,hepatic DIO1 gene expression,[1]; 3h after administration,significantly up-regulated
same,hepatic DIO1 gene expression,"[1]; after 8 h of administration, compared with the negative control group",still effective
same,thyroid hormone levels,thyroid axis,did not affect
same,F,[2],36.3%
same,AUClast,"[2]; i.v., individual animal",106.173 µg·h/mL and 104.125 µg·h/mL
same,CL_obs,"[2]; i.v., individual animal",0.67 mL/min/kg and 0.76 mL/min/kg and 0.75 mL/min/kg
same,T1/2,"[2]; i.v., individual animal",5.10 h and 6.62 h
same,Vss_obs,"[2]; i.v., individual animal",289 mL/kg and 253 mL/kg and 315 mL/kg
same,CL_obs,"[2]; i.v., mean",0.73 mL/min/kg
same,Vss_obs,"[2]; i.v., mean",286 mL/kg
same,AUC(0-t),[2]; [7],118 µg·h/mL
same,half-life,[2]; [7],384 min
same,AUC(0-t),"[2]; mouse, in vivo, iv, mean",109 µg·h/mL
same,half-life,"[2]; mouse, in vivo, iv, mean",362 min
same,AUC(0-t),[2]; [8],62.5 µg·h/mL
same,half-life,[2]; [8],259 min
same,Cmax,[2]; [9],9650 ng/mL
same,Tmax,[2]; [10],60 min
same,AUC(0-t),"[2]; mouse, in vivo, po, mean",79.4 µg·h/mL
same,half-life,"[2]; mouse, in vivo, po, mean",283 min
same,Cmax,[2]; [11],10500 ng/mL
same,Tmax,[2]; [12],49.8 min
same,AUClast,"[2]; p.o., individual animal",100.901 µg·h/mL and 74.686 µg·h/mL
same,Cmax,"[2]; p.o., individual animal",12800 ng/mL and 9108 ng/mL
same,T1/2,"[2]; p.o., individual animal",4.80 h and 5.02 h
same,Tmax,"[2]; p.o., individual animal",30 min
"Cc1cc(C(F)(F)F)nc2ccc(Oc3c(Cl)cc(-n4nc(C#N)c(=O)[nH]c4=O)cc3Cl)cc12 [Compound 38, 2-(3,5-Dichloro-4-((2-trifluoromethyl-4-methylquinolin-6-yl)oxy)phenyl) -3,5-dioxo-2,3,4,5-tetrahydro-1,2,4-triazine-6-carbonitrile]",effects on cardiac DIO1 and MHCα genes,[3],neither compound 38 nor MGL3196 had significant effects
same,"expression of CYP7α1, ME2, and LDLR genes in the liver","[1]; C57 mice, single administration, 10 mg/kg, after 24 h of administration",significantly up-regulated
same,DIO1 gene expression in the liver,"[1]; C57 mice, single administration, after 8 and 24 h of administration, T3 0.5 mg/kg, compound 38 10 mg/kg",significantly up-regulated
same,Heart,[4]; [13],115 ng/g and 199 ng/g and 113 ng/g
same,Liver,[4]; [13],3778 ng/g and 3241 ng/g and 3353 ng/g
same,Plasma,[4]; [13],8371 ng/mL and 7102 ng/mL and 6639 ng/mL
same,Heart,[4]; [14],39.9 ng/g and 72.2 ng/g and 26.4 ng/g and 63.3 ng/g
same,Liver,[4]; [14],582 ng/g and 895 ng/g and 264 ng/g and 729 ng/g
same,Plasma,[4]; [14],2473 ng/mL and 4555 ng/mL and 2005 ng/mL and 3847 ng/mL
same,Heart,"[4]; Table 4, oral 10 mg/kg, 24 h, individual animal",BLQ
same,Liver,[4]; [15],29.5 ng/g and 27.8 ng/g and 14.5 ng/g and 16.3 ng/g
same,Plasma,[4]; [15],281 ng/mL and 192 ng/mL and 88.6 ng/mL and 93.6 ng/mL
same,Heart,[4]; [16],215 ng/g and 169 ng/g
same,Liver,[4]; [16],1478 ng/g and 1383 ng/g
same,Plasma,[4]; [16],5796 ng/mL and 4534 ng/mL
same,Heart,[4]; [17],196 ng/g and 116 ng/g
same,Liver,[4]; [17],614 ng/g and 469 ng/g
same,Plasma,[4]; [17],4487 ng/mL and 2490 ng/mL
same,Heart,[4]; [18],6.36 ng/g and 13.7 ng/g and 20.5 ng/g
same,Liver,[4]; [18],23.3 ng/g and 39.5 ng/g and 56.7 ng/g
same,Plasma,[4]; [18],165 ng/mL and 335 ng/mL and 412 ng/mL
same,concentration at 3 h,"[4]; heart, 10 mg/kg, Table 4, 3 h, individual animal, read-out: Heart",189 ng/g
same,concentration at 3 h,"[4]; heart, 10 mg/kg, Table 4, 3 h, mean, read-out: Heart Mean",154 ng/g
same,concentration at 8 h,"[4]; heart, 10 mg/kg, Table 4, 8 h, mean, read-out: Heart Mean",50.5 ng/g
same,concentration at 24 h,"[4]; heart, 10 mg/kg, Table 4, 24 h, mean, read-out: Heart Mean",0 ng/g
same,concentration at 3 h,"[4]; heart, 10 mg/kg, Table 6, 3.00 h, individual animal, read-out: Heart",197 ng/g
same,concentration at 3 h,"[4]; heart, 10 mg/kg, Table 6, 3.00 h, mean, read-out: Heart Mean",194 ng/g
same,concentration at 8 h,"[4]; heart, 10 mg/kg, Table 6, 8.00 h, individual animal, read-out: Heart",139 ng/g
same,concentration at 8 h,"[4]; heart, 10 mg/kg, Table 6, 8.00 h, mean, read-out: Heart Mean",150 ng/g
same,concentration at 24 h,"[4]; heart, 10 mg/kg, Table 6, 24.0 h, mean, read-out: Heart Mean",13.5 ng/g
same,concentration at 3 h,"[4]; liver, 10 mg/kg, Table 4, 3 h, individual animal, read-out: Liver",4300 ng/g
same,concentration at 3 h,"[4]; liver, 10 mg/kg, Table 4, 3 h, mean, read-out: Liver Mean",3670 ng/g
same,concentration at 8 h,"[4]; liver, 10 mg/kg, Table 4, 8 h, mean, read-out: Liver Mean",617 ng/g
same,concentration at 24 h,"[4]; liver, 10 mg/kg, Table 4, 24 h, mean, read-out: Liver Mean",22 ng/g
same,concentration at 3 h,"[4]; liver, 10 mg/kg, Table 6, 3.00 h, individual animal, read-out: Liver",1880 ng/g
same,concentration at 3 h,"[4]; liver, 10 mg/kg, Table 6, 3.00 h, mean, read-out: Liver Mean",1580 ng/g
same,concentration at 8 h,"[4]; liver, 10 mg/kg, Table 6, 8.00 h, individual animal, read-out: Liver",689 ng/g
same,concentration at 8 h,"[4]; liver, 10 mg/kg, Table 6, 8.00 h, mean, read-out: Liver Mean",591 ng/g
same,concentration at 24 h,"[4]; liver, 10 mg/kg, Table 6, 24.0 h, mean, read-out: Liver Mean",39.8 ng/g
same,concentration at 3 h,"[4]; plasma, 10 mg/kg, Table 4, 3 h, individual animal, read-out: Plasma",9340 ng/mL
same,concentration at 3 h,"[4]; plasma, 10 mg/kg, Table 4, 3 h, mean, read-out: Plasma Mean",7860 ng/mL
same,concentration at 8 h,"[4]; plasma, 10 mg/kg, Table 4, 8 h, mean, read-out: Plasma Mean",3220 ng/mL
same,concentration at 24 h,"[4]; plasma, 10 mg/kg, Table 4, 24 h, mean, read-out: Plasma Mean",164 ng/mL
same,concentration at 3 h,"[4]; plasma, 10 mg/kg, Table 6, 3.00 h, mean, read-out: plasma Mean",5260 ng/mL
same,concentration at 8 h,"[4]; plasma, 10 mg/kg, Table 6, 8.00 h, mean, read-out: plasma Mean",3430 ng/mL
same,concentration at 24 h,"[4]; plasma, 10 mg/kg, Table 6, 24.0 h, mean, read-out: plasma Mean",304 ng/mL
same,concentration at 3 h,"[4]; 10 mg/kg, Table 6, 3.00 h, individual animal, read-out: plasma",5450 ng/mL
same,concentration at 8 h,"[4]; 10 mg/kg, Table 6, 8.00 h, individual animal, read-out: plasma",3330 ng/mL
same,plasma TC levels,[5]; 1 mg/kg dosage group,decreased
same,plasma TC levels,[5]; 10 mg/kg dosage group,decreased
same,serum TC/TG levels and LCL-C levels,[6],significant decrease
same,F,[2],75.8%
same,AUClast,"[2]; i.v., individual animal",95.351 µg·h/mL and 95.119 µg·h/mL
same,CL_obs,"[2]; i.v., individual animal",0.691 mL/min/kg and 0.859 mL/min/kg and 0.856 mL/min/kg
same,Cmax,"[2]; i.v., individual animal",95119 ng/mL
same,T1/2,"[2]; i.v., individual animal",4.30 h and 4.77 h
same,Vss_obs,"[2]; i.v., individual animal",220 mL/kg and 270 mL/kg and 267 mL/kg
same,CL_obs,"[2]; i.v., mean",0.802 mL/min/kg
same,Vss_obs,"[2]; i.v., mean",252 mL/kg
same,AUC(0-t),[2]; [7],119 µg·h/mL
same,half-life,[2]; [7],236 min
same,Cmax,"[2]; mouse, in vivo, iv, individual animal, read-out: Cmax",95400 ng/mL
same,AUC(0-t),"[2]; mouse, in vivo, iv, mean",103 µg·h/mL
same,half-life,"[2]; mouse, in vivo, iv, mean",260 min
same,AUC(0-t),[2]; [8],162 µg·h/mL
same,half-life,[2]; [8],301 min
same,Cmax,[2]; [9],26000 ng/mL
same,Tmax,[2]; [10],30 min
same,AUC(0-t),"[2]; mouse, in vivo, po, mean",156 µg·h/mL
same,half-life,"[2]; mouse, in vivo, po, mean",266 min
same,Cmax,[2]; [11],23100 ng/mL
same,Tmax,[2]; [12],49.8 min
same,AUClast,"[2]; p.o., individual animal",176.967 µg·h/mL and 130.466 µg·h/mL
same,Cmax,"[2]; p.o., individual animal",23595 ng/mL and 19689 ng/mL
same,T1/2,"[2]; p.o., individual animal",4.18 h and 4.13 h
same,Tmax,"[2]; p.o., individual animal",60 min
